According to patent US20240148709A1, “METHODS OF TREATING EYE PAIN AND EYE DISORDERS” (Aisa Pharma, Inc., priority 2022, published 2024):

Test system: participants with SSc-RP
Assay: Scleroderma Health Assessment Questionnaire (SHAQ), Phase 2a study Part A
Assay type: in vivo, human
Conditions: cilnidipine 10 mg and/or tadalafil 5 mg arms
Experimental: Part A—double-blind, placebo-controlled, parallel-group, dose selection, will assess the safety and efficacy of two doses of cilnidipine (10 mg and 20 mg), alone and in combination with tadalafil. A total of 36 participants will be randomized to one of six prespecified treatment arms. Refer to FIG. 1 for treatment arms in Part A of the study. Dosing last for 12 (±2) days in which participants will self-administer daily doses of assigned treatment in the morning. Each participant will take one capsule and one tablet to blind the active therapy being received.
The standard, validated, patient reported outcome measures tool for SSc patients, the SHAQ, will be collected at the time points specified in the study schedules (FIG. 2 and FIGS. 3A and 3B) to assess the participant's quality of life. The SHAQ includes a Raynaud's VAS that will also be reported separately.
Results: Patients in the study were administered the Scleroderma Health Assessment Questionnaire (SHAQ) at the time of study entry and during clinic visits following the treatment period. The study is a two-part, parallel arm design, prospective, double-blind, randomized study conducted in Australia (Flinders Medical Center). 27 patients were randomized into the first phase of the study, following which a DSMB meeting was held, which reviewed data on the primary study endpoint and key Raynaud's secondary endpoints. Data on the SHAQ was not available for the DSMB to review. The mITT population, in which any data was available post treatment was 24 patients was the analysis population for this first part of the study. The second part (i.e., part B) of the study will randomize 36 patients in a double blind, randomized, prospective, placebo controlled, crossover study. In the first part (i.e., Part A) of the study for which data is presented, patients were randomized into 6 groups, cilnidipine at two doses (10 and 20 mg) alone and in combination with tadalafil 5 mg, tadalafil 5 mg alone, and placebo. […] The DSMB recommended that the study proceed into its double blind prospective cross overpowered second phase and compare cilnidipine 20 mg alone to placebo.

COCCOC(=O)C1=C(C)NC(C)=C(C(=O)OC/C=C/c2ccccc2)C1c1cccc([N+](=O)[O-])c1 (stereo not shown) [Cilnidipine, cilnidipine]
SHAQ Overall Change in Severity, Percent Change from Baseline, Max: −26.8% | SHAQ Overall Change in Severity, Percent Change from Baseline, Mean (SD): −56.96 (38.271) % | SHAQ Overall Change in Severity, Percent Change from Baseline, Median: −44.12% | SHAQ Overall Change in Severity, Percent Change from Baseline, Min: −100.0% | SHAQ Overall Change in Severity, Percent Change from Baseline, Q1: −100.00% | SHAQ Overall Change in Severity, Percent Change from Baseline, Q3: −26.76% | SHAQ Standard disability index, Change from Baseline, Max: 0.00, 0.00 | SHAQ Standard disability index, Change from Baseline, Mean (SD): 0.0 (0.0000) | SHAQ Standard disability index, Change from Baseline, Median: 0.000 | SHAQ Standard disability index, Change from Baseline, Min: 0.00, 0.00 | SHAQ Standard disability index, Change from Baseline, Q1: 0.000, 0.000 | SHAQ Standard disability index, Change from Baseline, Q3: 0.000, 0.000 | SHAQ Standard disability index, In Clinic Visit (Day 12), Max: 1.50 | SHAQ Standard disability index, In Clinic Visit (Day 12), Mean (SD): 0.656 (0.7731) | SHAQ Standard disability index, In Clinic Visit (Day 12), Median: 0.563 | SHAQ Standard disability index, In Clinic Visit (Day 12), Min: 0.00 | SHAQ Standard disability index, In Clinic Visit (Day 12), Q1: 0.000 | SHAQ Standard disability index, In Clinic Visit (Day 12), Q3: 1.313 | SHAQ Standard disability index, Percent Change from Baseline, Max: 0.0, 0.0% | SHAQ Standard disability index, Percent Change from Baseline, Mean (SD): 0.0 (0.000) % | SHAQ Standard disability index, Percent Change from Baseline, Median: 0.00% | SHAQ Standard disability index, Percent Change from Baseline, Min: 0.0, 0.0% | SHAQ Standard disability index, Percent Change from Baseline, Q1: 0.00, 0.00% | SHAQ Standard disability index, Percent Change from Baseline, Q3: 0.00, 0.00% | SHAQ Visual Analog Scale-Breathing Problems, Change from Baseline, Max: 0.00 | SHAQ Visual Analog Scale-Breathing Problems, Change from Baseline, Mean (SD): −0.300 (0.6000) | SHAQ Visual Analog Scale-Breathing Problems, Change from Baseline, Median: 0.000 | SHAQ Visual Analog Scale-Breathing Problems, Change from Baseline, Min: −1.20 | SHAQ Visual Analog Scale-Breathing Problems, Change from Baseline, Q1: −0.600 | SHAQ Visual Analog Scale-Breathing Problems, Change from Baseline, Q3: 0.000 | SHAQ Visual Analog Scale-Breathing Problems, In Clinic Visit (Day 12), Max: 6.30 | SHAQ Visual Analog Scale-Breathing Problems, In Clinic Visit (Day 12), Mean (SD): 1.575 (3.1500) | SHAQ Visual Analog Scale-Breathing Problems, In Clinic Visit (Day 12), Median: 0.000 | SHAQ Visual Analog Scale-Breathing Problems, In Clinic Visit (Day 12), Min: 0.00 | SHAQ Visual Analog Scale-Breathing Problems, In Clinic Visit (Day 12), Q1: 0.000 | SHAQ Visual Analog Scale-Breathing Problems, In Clinic Visit (Day 12), Q3: 3.150 | SHAQ Visual Analog Scale-Breathing Problems, Percent Change from Baseline, Max: −16.0, −16.0% | SHAQ Visual Analog Scale-Breathing Problems, Percent Change from Baseline, Mean (SD): −16.00% | SHAQ Visual Analog Scale-Breathing Problems, Percent Change from Baseline, Median: −16.00% | SHAQ Visual Analog Scale-Breathing Problems, Percent Change from Baseline, Min: −16.0, −16.0% | SHAQ Visual Analog Scale-Breathing Problems, Percent Change from Baseline, Q1: −16.00, −16.00% | SHAQ Visual Analog Scale-Breathing Problems, Percent Change from Baseline, Q3: −16.00, −16.00% | SHAQ Visual Analog Scale-Intestinal Problems, Change from Baseline, Max: 0.00 | SHAQ Visual Analog Scale-Intestinal Problems, Change from Baseline, Mean (SD): −1.875 (2.1838) | SHAQ Visual Analog Scale-Intestinal Problems, Change from Baseline, Median: −1.550 | SHAQ Visual Analog Scale-Intestinal Problems, Change from Baseline, Min: −4.40 | SHAQ Visual Analog Scale-Intestinal Problems, Change from Baseline, Q1: −3.700 | SHAQ Visual Analog Scale-Intestinal Problems, Change from Baseline, Q3: −0.050 | SHAQ Visual Analog Scale-Intestinal Problems, In Clinic Visit (Day 12), Max: 3.80 | SHAQ Visual Analog Scale-Intestinal Problems, In Clinic Visit (Day 12), Mean (SD): 1.100 (1.8221) | SHAQ Visual Analog Scale-Intestinal Problems, In Clinic Visit (Day 12), Median: 0.300 | SHAQ Visual Analog Scale-Intestinal Problems, In Clinic Visit (Day 12), Min: 0.00 | SHAQ Visual Analog Scale-Intestinal Problems, In Clinic Visit (Day 12), Q1: 0.000 | SHAQ Visual Analog Scale-Intestinal Problems, In Clinic Visit (Day 12), Q3: 2.200 | SHAQ Visual Analog Scale-Intestinal Problems, Percent Change from Baseline, Max: −44.1% | SHAQ Visual Analog Scale-Intestinal Problems, Percent Change from Baseline, Mean (SD): −77.37 (29.418) % | SHAQ Visual Analog Scale-Intestinal Problems, Percent Change from Baseline, Median: −88.00% | SHAQ Visual Analog Scale-Intestinal Problems, Percent Change from Baseline, Min: −100.0% | SHAQ Visual Analog Scale-Intestinal Problems, Percent Change from Baseline, Q1: −100.00% | SHAQ Visual Analog Scale-Intestinal Problems, Percent Change from Baseline, Q3: −44.12% | SHAQ Visual Analog Scale-Pain, Change from Baseline, Max: 0.30 | SHAQ Visual Analog Scale-Pain, Change from Baseline, Mean (SD): −0.100 (0.4243) | SHAQ Visual Analog Scale-Pain, Change from Baseline, Median: 0.000 | SHAQ Visual Analog Scale-Pain, Change from Baseline, Min: −0.70 | SHAQ Visual Analog Scale-Pain, Change from Baseline, Q1: −0.350 | SHAQ Visual Analog Scale-Pain, Change from Baseline, Q3: 0.150 | SHAQ Visual Analog Scale-Pain, In Clinic Visit (Day 12), Max: 3.60 | SHAQ Visual Analog Scale-Pain, In Clinic Visit (Day 12), Mean (SD): 1.875 (1.6641) | SHAQ Visual Analog Scale-Pain, In Clinic Visit (Day 12), Median: 1.950 | SHAQ Visual Analog Scale-Pain, In Clinic Visit (Day 12), Min: 0.00 | SHAQ Visual Analog Scale-Pain, In Clinic Visit (Day 12), Q1: 0.500 | SHAQ Visual Analog Scale-Pain, In Clinic Visit (Day 12), Q3: 3.250 | SHAQ Visual Analog Scale-Pain, Percent Change from Baseline, Max: 11.5% | SHAQ Visual Analog Scale-Pain, Percent Change from Baseline, Mean (SD): −9.88 (27.711) % | SHAQ Visual Analog Scale-Pain, Percent Change from Baseline, Median: 0.00% | SHAQ Visual Analog Scale-Pain, Percent Change from Baseline, Min: −41.2% | SHAQ Visual Analog Scale-Pain, Percent Change from Baseline, Q1: −41.18% | SHAQ Visual Analog Scale-Pain, Percent Change from Baseline, Q3: 11.54% | SHAQ Visual Analog Scale-Raynaud's, Change from Baseline, Max: 1.50 | SHAQ Visual Analog Scale-Raynaud's, Change from Baseline, Mean (SD): 0.325 (1.0468) | SHAQ Visual Analog Scale-Raynaud's, Change from Baseline, Median: 0.350 | SHAQ Visual Analog Scale-Raynaud's, Change from Baseline, Min: −0.90 | SHAQ Visual Analog Scale-Raynaud's, Change from Baseline, Q1: −0.500 | SHAQ Visual Analog Scale-Raynaud's, Change from Baseline, Q3: 1.150 | SHAQ Visual Analog Scale-Raynaud's, In Clinic Visit (Day 12), Max: 4.30
